Source: US20220241311A1, “METHODS AND MATERIALS FOR TREATING GLYCOSYLATION DISORDERS” (priority 2018, published 2022)

Tested on: PGM1-defective patient fibroblasts
Test: Nucleotide sugar analysis (UPLC-PDA), patient fibroblasts
Type: cell-based, human
Protocol: Levels of nucleotides and sugar-nucleotides were determined. Fibroblast cell pellets (5×10^6 cells per sample) were lysed and extracted in 0.37 ml ice-cold 0.5 M perchloric acid with sonication on ice. Samples were neutralized with 86 μl ice-cold neutralization solution (2.5 M KOH in 1.5 M K2HPO4) after 5 minute sonication. To remove precipitated potassium perchlorate neutralized samples were centrifuged at 4° C. and 16,400×g for 10 minutes and filtered with 0.2 μm filters. Nucleotides and sugar-nucleotides were immediately analyzed and separated via ion-pair reverse phased chromatography using an Acquity HSS T3 column (150 mm×2.1 mm, 1.7 μm, Waters) connected to an Acquity H-class UPLC system. The column temperature was set to 40° C. and the column was equilibrated with solvent A (50 mM potassium phosphate buffer, 8 mM tetrabutylammonium hydrogensulfate, pH 6.5) at a flow rate of 0.45 ml min^−1. Autosampler temperature was maintained at 6° C. […] Nucleotides were detected by Acquity PDA detector (Waters, 260 nm) and quantified using ultrapure standards (Sigma). Data acquisition and processing was performed with the Empower3 software suite (Waters).
Nucleotide sugars were measured with serum starvation during 18 hours of culturing and without of serum starvation and applying normal media.

[1] = Patient 8, 1 d + 0.75 mM Galactose
[2] = Patient 8, 4 d + 0.75 mM Galactose
[3] = listed as 'i e' (patient cell-line 2013Y), 1 d 2 mM Galactose
[4] = listed as 'i e' (patient cell-line 2013Y), 1 d + 0.75 mM Galactose
[5] = listed as 'i e' (patient cell-line 2013Y), 4 d 2 mM Galactose
[6] = listed as 'i e' (patient cell-line 2013Y), 4 d + 0.75 mM Galactose

Structure (SMILES): O=C[C@H](O)[C@@H](O)[C@@H](O)[C@H](O)CO [D-gal, D-galactose]
- ADP (Patient 8, 1 d 2 mM Galactose): 510.69 pmol/mio cells
- AMP (Patient 8, 1 d 2 mM Galactose): 15.28 pmol/mio cells
- ATP (Patient 8, 1 d 2 mM Galactose): 2089.09 pmol/mio cells
- CTP (Patient 8, 1 d 2 mM Galactose): 274.92 pmol/mio cells
- GDP (Patient 8, 1 d 2 mM Galactose): 213.67 pmol/mio cells
- GDP-Man (Patient 8, 1 d 2 mM Galactose): 29.66 pmol/mio cells
- GTP (Patient 8, 1 d 2 mM Galactose): 434.86 pmol/mio cells
- UDP (Patient 8, 1 d 2 mM Galactose): 153.67 pmol/mio cells
- UDP-Gal (Patient 8, 1 d 2 mM Galactose): 398.68 pmol/mio cells
- UDP-Glc (Patient 8, 1 d 2 mM Galactose): 613.75 pmol/mio cells
- UDP-GlcNAc (Patient 8, 1 d 2 mM Galactose): 31.04 pmol/mio cells
- UTP (Patient 8, 1 d 2 mM Galactose): 1183.32 pmol/mio cells
- cAMP (Patient 8, 1 d 2 mM Galactose): 75.29 pmol/mio cells
- ADP [1]: 429.27 pmol/mio cells
- AMP [1]: 7.31 pmol/mio cells
- ATP [1]: 1855.71 pmol/mio cells
- CTP [1]: 222.68 pmol/mio cells
- GDP [1]: 188.04 pmol/mio cells
- GDP-Man [1]: 31.71 pmol/mio cells
- GTP [1]: 387.39 pmol/mio cells
- UDP [1]: 120.53 pmol/mio cells
- UDP-Gal [1]: 273.66 pmol/mio cells
- UDP-Glc [1]: 445.76 pmol/mio cells
- UDP-GlcNAc [1]: 40.27 pmol/mio cells
- UTP [1]: 1037.93 pmol/mio cells
- cAMP [1]: 72.84 pmol/mio cells
- ADP (Patient 8, 4 d 2 mM Galactose): 695.56 pmol/mio cells
- AMP (Patient 8, 4 d 2 mM Galactose): 22.78 pmol/mio cells
- ATP (Patient 8, 4 d 2 mM Galactose): 3192.45 pmol/mio cells
- CTP (Patient 8, 4 d 2 mM Galactose): 282.74 pmol/mio cells
- GDP (Patient 8, 4 d 2 mM Galactose): 260.45 pmol/mio cells
- GDP-Man (Patient 8, 4 d 2 mM Galactose): 95.43 pmol/mio cells
- GTP (Patient 8, 4 d 2 mM Galactose): 659.21 pmol/mio cells
- UDP (Patient 8, 4 d 2 mM Galactose): 169.63 pmol/mio cells
- UDP-Gal (Patient 8, 4 d 2 mM Galactose): 315.21 pmol/mio cells
- UDP-Glc (Patient 8, 4 d 2 mM Galactose): 493.54 pmol/mio cells
- UDP-GlcNAc (Patient 8, 4 d 2 mM Galactose): 56.13 pmol/mio cells
- UTP (Patient 8, 4 d 2 mM Galactose): 1293.27 pmol/mio cells
- cAMP (Patient 8, 4 d 2 mM Galactose): 88.40 pmol/mio cells
- ADP [2]: 655.53 pmol/mio cells
- AMP [2]: 18.87 pmol/mio cells
- ATP [2]: 3363.84 pmol/mio cells
- CTP [2]: 274.92 pmol/mio cells
- GDP [2]: 277.54 pmol/mio cells
- GDP-Man [2]: 101.37 pmol/mio cells
- GTP [2]: 682.40 pmol/mio cells
- UDP [2]: 174.89 pmol/mio cells
- UDP-Gal [2]: 283.69 pmol/mio cells
- UDP-Glc [2]: 442.43 pmol/mio cells
- UDP-GlcNAc [2]: 6.33 pmol/mio cells
- UTP [2]: 1364.91 pmol/mio cells
- cAMP [2]: 74.47 pmol/mio cells
- UDP-Glc and UDP-Gal levels (all patient cell lines, 4 days of D-gal supplementation): remained significantly increased
- ADP [3]: 318.92 pmol/mio cells
- AMP [3]: 2.63 pmol/mio cells
- ATP [3]: 2918.66 pmol/mio cells
- CTP [3]: 295.58 pmol/mio cells
- GDP [3]: 186.06 pmol/mio cells
- GDP-Man [3]: 56.30 pmol/mio cells
- GTP [3]: 566.56 pmol/mio cells
- UDP [3]: 42.70 pmol/mio cells
- UDP-Gal [3]: 503.56 pmol/mio cells
- UDP-Glc [3]: 637.55 pmol/mio cells
- UDP-GlcNAc [3]: 211.57 pmol/mio cells
- UTP [3]: 981.09 pmol/mio cells
- cAMP [3]: 70.73 pmol/mio cells
- ADP [4]: 407.13 pmol/mio cells
- AMP [4]: 8.23 pmol/mio cells
- ATP [4]: 3422.01 pmol/mio cells
- CTP [4]: 339.16 pmol/mio cells
- GDP [4]: 187.52 pmol/mio cells
- GDP-Man [4]: 107.59 pmol/mio cells
- GTP [4]: 681.74 pmol/mio cells
- UDP [4]: 115.84 pmol/mio cells
- UDP-Gal [4]: 431.17 pmol/mio cells
- UDP-Glc [4]: 703.36 pmol/mio cells
- UDP-GlcNAc [4]: 21.89 pmol/mio cells
- UTP [4]: 1494.83 pmol/mio cells
- cAMP [4]: 91.16 pmol/mio cells
- ADP [5]: 382.44 pmol/mio cells
- AMP [5]: 16.17 pmol/mio cells
- ATP [5]: 3460.76 pmol/mio cells
- CTP [5]: 241.06 pmol/mio cells
- GDP [5]: 242.68 pmol/mio cells
- GDP-Man [5]: 147.29 pmol/mio cells
- GTP [5]: 681.71 pmol/mio cells
- UDP [5]: 43.26 pmol/mio cells
- UDP-Gal [5]: 394.31 pmol/mio cells
- UDP-Glc [5]: 616.89 pmol/mio cells
- UTP [5]: 1316.26 pmol/mio cells
- cAMP [5]: 98.61 pmol/mio cells
- ADP [6]: 349.53 pmol/mio cells
- AMP [6]: 3.85 pmol/mio cells
- ATP [6]: 3484.52 pmol/mio cells
- CTP [6]: 280.34 pmol/mio cells
- GDP [6]: 225.14 pmol/mio cells
- GDP-Man [6]: 151.18 pmol/mio cells
- GTP [6]: 686.35 pmol/mio cells
- UDP [6]: 39.53 pmol/mio cells
- UDP-Gal [6]: 290.54 pmol/mio cells
- UDP-Glc [6]: 487.94 pmol/mio cells
- UDP-GlcNAc [6]: 354.84 pmol/mio cells
- UTP [6]: 944.20 pmol/mio cells
- cAMP [6]: 68.63 pmol/mio cells
